For one assay, the target named is 5-HT2A (Homo sapiens, UniProt P28223). As to the kind of experiment: IP1 agonist functional assay. The format is cell-based.
The next assay deals with 5-HT2B (Homo sapiens, UniProt P41595). As to the kind of experiment: IP1 agonist functional assay. In kind it is cell-based.
Assay [1] can be described thus: Head twitch response assay. In kind it is in vivo, Mice (C57bl/6J). The note with it: mice, 1, 3, 10, and 30 mg/kg s.c., vs positive control DOI. The procedure: FIG. 2. […] N=5 mice in each cohort. […] Drugs were administered s.c.
Mice (C57bl/6J, 8-15 weeks, 26-33 g) were weighed and moved to the testing room 30 minutes prior to experimentation. Mice were administered the experimental compound at a selected dose s.c. and then immediately moved to a new cage. Before beginning the test, mice were allowed to remain in this cage for a set amount of time ranging 0-10 min based on the compound. The head twitch assay was performed by a trained observer watching the mouse for a 10 min duration and recording the total number of head twitches observed.
DOI was tested at the doses of 1, 3, 10 and 30 mg/kg (s.c., 5 mice per dose) and testing began immediately after administration of the compound. Ariadne (32), (29) and (38) were tested at the doses of 1, 3, 10, and 30 mg/kg (s.c., 5 mice per dose) and there was a 10 min interval between treatment and testing.

As usually defined, the EC50 is the midpoint of the concentration-response curve. Lower therefore signals an effect from little substance.

Sequence of 5-HT2A (P28223 whole entry): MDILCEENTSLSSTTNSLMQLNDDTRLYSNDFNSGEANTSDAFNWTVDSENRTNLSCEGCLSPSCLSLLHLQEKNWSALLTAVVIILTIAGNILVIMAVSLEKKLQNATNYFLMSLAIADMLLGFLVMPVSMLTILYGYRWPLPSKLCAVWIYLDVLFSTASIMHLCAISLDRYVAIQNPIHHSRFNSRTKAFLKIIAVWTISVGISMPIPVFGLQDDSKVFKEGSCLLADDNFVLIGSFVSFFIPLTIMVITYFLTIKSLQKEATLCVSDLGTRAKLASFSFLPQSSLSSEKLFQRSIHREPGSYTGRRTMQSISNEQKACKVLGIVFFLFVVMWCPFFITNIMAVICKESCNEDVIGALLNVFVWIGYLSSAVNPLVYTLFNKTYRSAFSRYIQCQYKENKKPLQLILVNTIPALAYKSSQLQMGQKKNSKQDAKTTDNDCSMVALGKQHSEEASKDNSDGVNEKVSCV
Sequence of 5-HT2B (P41595 whole entry): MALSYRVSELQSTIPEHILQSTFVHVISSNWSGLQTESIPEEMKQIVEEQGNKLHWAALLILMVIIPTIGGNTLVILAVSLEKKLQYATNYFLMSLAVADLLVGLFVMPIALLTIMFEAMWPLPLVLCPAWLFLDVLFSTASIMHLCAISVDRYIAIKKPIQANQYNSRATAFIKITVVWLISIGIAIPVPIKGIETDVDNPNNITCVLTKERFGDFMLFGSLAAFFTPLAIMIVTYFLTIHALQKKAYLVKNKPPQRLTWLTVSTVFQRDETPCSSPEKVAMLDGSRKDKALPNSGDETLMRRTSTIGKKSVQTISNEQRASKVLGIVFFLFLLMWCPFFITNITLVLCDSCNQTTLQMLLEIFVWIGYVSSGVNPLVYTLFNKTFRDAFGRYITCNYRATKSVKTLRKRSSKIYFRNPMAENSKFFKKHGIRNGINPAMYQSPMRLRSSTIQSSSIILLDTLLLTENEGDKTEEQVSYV

For `CCC(N)Cc1cc(OC)c(C(F)(F)F)cc1OC` (stereo not shown) [compound 29, 1-(2,5-dimethoxy-4-(trifluoromethyl)phenyl) butan-2-amine], the EC50 on 5-HT2A stood at 34 nM; at 5-HT2B it was 5900 nM. Moreover, the “Selectivity (EC50 2B ÷ EC50 2A)” value at 5-HT2A (5HT2A versus 5HT2B, relative agonism potencies) is on record as 174x. Besides, in assay [1], the “psychedelic activity (number of head twitches in a 10-min period)” value is given as “lower psychedelic activity”.

Source of the values: patent US20240109836A1, “NON-HALL[…] ANALOGS FOR TREATMENT OF NEUROLOGICAL AND PSYCHIATRIC DISORDERS” (The Trustees of Columbia University in the City of New York, priority 2021, published 2024).
